# Data from PubChem BioAssay AID2060487 (Molecular Pharmacology Branch, DTP, NCI, 2025).
# Test system: 997537-175-T-J1-PDC complex spheroid viability
# Experiment: Anticancer human tumor 997537-175-T-J1-PDC patient-derived colon adenocarcinoma cell line growth inhibition [GQUAD]
# Conditions: for IC50: curve of first compound; for viability, T/C: stronger effect = lower value
# Outline: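 Tumor cells were grown as complex spheroids with HUVEC endothelial cells and mesenchymal stem cells as stroma. G-quadruplex stabilizers were combined with targeted agents over half-log dilutions from near the clinical Cmax, or from 10 microM.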
# [1] = second compound 0.0316 µM, first compound 0.0316 µM
# [2] = second compound 0.0316 µM, first compound 0.1 µM
# [3] = second compound 0.0316 µM, first compound 0.316 µM
# [4] = second compound 0.0316 µM, first compound 1 µM
# [5] = second compound 0.0316 µM, first compound 3.16 µM
# [6] = second compound 0.0316 µM, first compound 10 µM
# [7] = second compound 0.1 µM, first compound 0.0316 µM
# [8] = second compound 0.1 µM, first compound 0.1 µM
# [9] = second compound 0.1 µM, first compound 0.316 µM
# [10] = second compound 0.1 µM, first compound 1 µM
# [11] = second compound 0.1 µM, first compound 3.16 µM
# [12] = second compound 0.1 µM, first compound 10 µM
# [13] = second compound 0.316 µM, first compound 0.0316 µM
# [14] = second compound 0.316 µM, first compound 0.1 µM
# [15] = second compound 0.316 µM, first compound 0.316 µM
# [16] = second compound 0.316 µM, first compound 1 µM
# [17] = second compound 0.316 µM, first compound 3.16 µM
# [18] = second compound 0.316 µM, first compound 10 µM
# [19] = second compound 1 µM, first compound 0.0316 µM
# [20] = second compound 1 µM, first compound 0.1 µM
# [21] = second compound 1 µM, first compound 0.316 µM
# [22] = second compound 1 µM, first compound 1 µM
# [23] = second compound 1 µM, first compound 3.16 µM
# [24] = second compound 1 µM, first compound 10 µM
# [25] = second compound 3.16 µM, first compound 0.0316 µM
# [26] = second compound 3.16 µM, first compound 0.1 µM
# [27] = second compound 3.16 µM, first compound 0.316 µM
# [28] = second compound 3.16 µM, first compound 1 µM
# [29] = second compound 3.16 µM, first compound 3.16 µM
# [30] = second compound 3.16 µM, first compound 10 µM
# [31] = second compound 10 µM, first compound 0.0316 µM
# [32] = second compound 10 µM, first compound 0.1 µM
# [33] = second compound 10 µM, first compound 0.316 µM
# [34] = second compound 10 µM, first compound 1 µM
# [35] = second compound 10 µM, first compound 3.16 µM
# [36] = second compound 10 µM, first compound 10 µM
# 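Note: spheroids exposed to the agents for 7 days.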
# 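Throughout, for viability, T/C: 100% = DMSO vehicle control viability.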
smiles,measurement,setting,value
CC(=O)O[C@H]1C(=O)[C@@]2(C)[C@H]([C@H](OC(=O)c3ccccc3)[C@]3(O)C[C@H](OC(=O)[C@H](O)[C@@H](NC(=O)c4ccccc4)c4ccccc4)C(C)=C1C3(C)C)[C@]1(OC(C)=O)CO[C@@H]1C[C@@H]2O + CN(C)c1ccc(Nc2c3ccc(NC(=O)CCN4CCCC4)cc3nc3cc(NC(=O)CCN4CCCC4)ccc23)cc1,IC50,second compound 0.0316 µM,0.0791 µM
same,IC50,second compound 0.1 µM,0.0677 µM
same,IC50,second compound 0.316 µM,0.0746 µM
same,IC50,second compound 1 µM,0.0531 µM
same,IC50,second compound 3.16 µM,< 0.0316 µM
same,IC50,second compound 10 µM,0.059 µM
same,"viability, T/C",[1],75.2%
same,"viability, T/C",[2],43.6%
same,"viability, T/C",[3],28.1%
same,"viability, T/C",[4],21.5%
same,"viability, T/C",[5],32.2%
same,"viability, T/C",[6],29.4%
same,"viability, T/C",[7],67.3%
same,"viability, T/C",[8],40.9%
same,"viability, T/C",[9],36.9%
same,"viability, T/C",[10],21.1%
same,"viability, T/C",[11],30.7%
same,"viability, T/C",[12],34.9%
same,"viability, T/C",[13],78.3%
same,"viability, T/C",[14],36.5%
same,"viability, T/C",[15],34.5%
same,"viability, T/C",[16],19.4%
same,"viability, T/C",[17],16.6%
same,"viability, T/C",[18],21.1%
same,"viability, T/C",[19],71.6%
same,"viability, T/C",[20],9.98%
same,"viability, T/C",[21],35.1%
same,"viability, T/C",[22],18.1%
same,"viability, T/C",[23],29.6%
same,"viability, T/C",[24],24.8%
same,"viability, T/C",[25],37.7%
same,"viability, T/C",[26],45.5%
same,"viability, T/C",[27],31.9%
same,"viability, T/C",[28],18.1%
same,"viability, T/C",[29],20.1%
same,"viability, T/C",[30],41.8%
same,"viability, T/C",[31],72%
same,"viability, T/C",[32],28.8%
same,"viability, T/C",[33],34.4%
same,"viability, T/C",[34],35.7%
same,"viability, T/C",[35],29.8%
same,"viability, T/C",[36],27.3%
CCCS(=O)(=O)Nc1ccc(F)c(C(=O)c2c[nH]c3ncc(-c4ccc(Cl)cc4)cc23)c1F + CN(C)c1ccc(Nc2c3ccc(NC(=O)CCN4CCCC4)cc3nc3cc(NC(=O)CCN4CCCC4)ccc23)cc1,IC50,second compound 0.0316 µM,2.18 µM
same,IC50,second compound 0.1 µM,3.14 µM
same,IC50,second compound 0.316 µM,4.1 µM
same,IC50,second compound 1 µM,4.72 µM
same,IC50,second compound 3.16 µM,7.03 µM
same,IC50,second compound 10 µM,5.84 µM
same,"viability, T/C",[1],93.9%
same,"viability, T/C",[2],75.3%
same,"viability, T/C",[3],60.8%
same,"viability, T/C",[4],78.6%
same,"viability, T/C",[5],38.4%
same,"viability, T/C",[6],24.5%
same,"viability, T/C",[7],105%
same,"viability, T/C",[8],73.1%
same,"viability, T/C",[9],75.4%
same,"viability, T/C",[10],70.6%
same,"viability, T/C",[11],52.1%
same,"viability, T/C",[12],32.7%
same,"viability, T/C",[13],71.3%
same,"viability, T/C",[14],72.9%
same,"viability, T/C",[15],81.3%
same,"viability, T/C",[16],62.9%
same,"viability, T/C",[17],59.4%
same,"viability, T/C",[18],23.9%
same,"viability, T/C",[19],67%
same,"viability, T/C",[20],55%
same,"viability, T/C",[21],81.7%
same,"viability, T/C",[22],43.3%
same,"viability, T/C",[23],65.4%
same,"viability, T/C",[24],26.9%
same,"viability, T/C",[25],70.3%
same,"viability, T/C",[26],63.5%
same,"viability, T/C",[27],85.1%
same,"viability, T/C",[28],39.9%
same,"viability, T/C",[29],78.9%
same,"viability, T/C",[30],42.3%
same,"viability, T/C",[31],71.3%
same,"viability, T/C",[32],62.6%
same,"viability, T/C",[33],63.5%
same,"viability, T/C",[34],56%
same,"viability, T/C",[35],74.9%
same,"viability, T/C",[36],36.4%
COc1cc(C2c3cc4c(cc3C(OC3OC5COC(C)OC5C(O)C3O)C3COC(=O)C23)OCO4)cc(OC)c1O (stereo unspecified) + CN(C)c1ccc(Nc2c3ccc(NC(=O)CCN4CCCC4)cc3nc3cc(NC(=O)CCN4CCCC4)ccc23)cc1,IC50,second compound 0.0316 µM,> 10 µM
same,IC50,second compound 0.1 µM,> 10 µM
same,IC50,second compound 0.316 µM,> 10 µM
same,IC50,second compound 1 µM,> 10 µM
same,IC50,second compound 3.16 µM,> 10 µM
same,IC50,second compound 10 µM,> 10 µM
same,"viability, T/C",[1],93.8%
same,"viability, T/C",[2],105%
same,"viability, T/C",[3],96.5%
same,"viability, T/C",[4],78.6%
same,"viability, T/C",[5],74.1%
same,"viability, T/C",[6],74.7%
same,"viability, T/C",[7],113%
same,"viability, T/C",[8],105%
same,"viability, T/C",[9],101%
same,"viability, T/C",[10],81.2%
same,"viability, T/C",[11],95.2%
same,"viability, T/C",[12],65.7%
same,"viability, T/C",[13],97.2%
same,"viability, T/C",[14],96.6%
same,"viability, T/C",[15],91.4%
same,"viability, T/C",[16],87.1%
same,"viability, T/C",[17],92.3%
same,"viability, T/C",[18],64.8%
same,"viability, T/C",[19],89.1%
same,"viability, T/C",[20],110%
same,"viability, T/C",[21],90.2%
same,"viability, T/C",[22],75.1%
same,"viability, T/C",[23],91.2%
same,"viability, T/C",[24],55.2%
same,"viability, T/C",[25],78.7%
same,"viability, T/C",[26],102%
same,"viability, T/C",[27],76.7%
same,"viability, T/C",[28],95.2%
same,"viability, T/C",[29],83.2%
same,"viability, T/C",[30],72.3%
same,"viability, T/C",[31],79.7%
same,"viability, T/C",[32],108%
same,"viability, T/C",[33],99.9%
same,"viability, T/C",[34],87.2%
same,"viability, T/C",[35],89.8%
same,"viability, T/C",[36],67.4%
